According to US11123439B2, “Antibody drug conjugates (ADCS) and antibody prodrug conjugates (APDCS) with enzymatically cleavable groups” (Bayer Pharma Aktiengesellschaft, priority 2015, dated 2021):

Biological target: T1, legumain (Homo sapiens, UniProt Q99538)
T1 construct: purchased R&D Systems 2199-CY
T1 sequence (Q99538 18-323 limits assumed): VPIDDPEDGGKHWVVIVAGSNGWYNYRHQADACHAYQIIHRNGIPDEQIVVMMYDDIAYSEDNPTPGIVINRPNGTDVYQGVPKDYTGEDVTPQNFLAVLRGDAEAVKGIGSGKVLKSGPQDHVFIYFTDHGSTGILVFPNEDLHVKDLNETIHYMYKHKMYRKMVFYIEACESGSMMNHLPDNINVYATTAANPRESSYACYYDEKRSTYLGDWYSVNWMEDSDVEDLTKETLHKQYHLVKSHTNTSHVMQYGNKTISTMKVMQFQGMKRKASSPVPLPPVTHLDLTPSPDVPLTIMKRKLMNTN
Assay: Legumain assay (enzymatic cleavage of prodrug)
Assay type: biochemical
Details: recombinant human legumain, rh legumain 1 ng/μl, 50 mM MES buffer, 250 mM NaCl, pH 5.0, read-out: half-life of legumain cleavage to the target compound (converted)
Method: The legumain assay was conducted with recombinant human enzyme. The rh legumain enzyme solution (catalogue #2199-CY, R&D Systems) was diluted to the desired concentration in 50 mM Na acetate buffer/100 mM NaCl, pH4.0 and preincubated at 37° C. for 2 h. rh legumain was then adjusted to a final concentration of 1 ng/μl in 50 mM MES buffer, 250 mM NaCl, pH 5.0. For every legumain-cleavable prodrug to be examined, a mixture was made up in a micro reaction vessel (0.5 ml, from Eppendorf). For this purpose, the substrate solution was adjusted to the desired concentration (double concentration) with 50 mM MES buffer, 250 mM NaCl, pH 5.0. For the kinetic measurement of the enzymatic reaction, 250 μl of the legumain solution were first initially charged and the enzyme reaction was started by adding 250 μl of the substrate solution (final concentration: single concentration). At different times, 50 μL samples were taken. This sample was admixed immediately with 100 μl of ice-cold methanol in order to stop the enzymatic reaction and then frozen at −20° C. The times selected for sampling were after 0.5 h, 1 h, 3 h and 24 h. The samples were then analysed by means of RP-HPLC analysis and by LC-MS analysis. The determination of the toxophore released enabled the determination of the half-life t1/2 of the enzymatic reaction. […]

In the case of `CNC(=O)[C@H](CCN(C(=O)CO)[C@@H](c1cc(-c2cc(F)ccc2F)cn1Cc1ccccc1)C(C)(C)C)NC(=O)[C@H](CC(N)=O)NC(=O)[C@H](C)NC(=O)[C@H](C)NC(=O)Cc1ccncc1` [Compound A, N-(Pyridin-4-ylacetyl)-L-alanyl-L-alanyl-N^1-[(2S)-4-[{(1R)-1-[1-benzyl-4-(2,5-difluorophenyl)-1H-pyrrol-2-yl]-2,2-dimethylpropyl}(glycoloyl)amino]-1-(methylamino)-1-oxobutan-2-yl]-L-aspartamide], the half-life is reported as 1.1 h.
